{
  "source": "patent US9688661B2",
  "about": "“Substituted pyrroles active as kinases inhibitors” (NERVIANO MEDICAL SCIENCES S.R.L., priority 2012, dated 2017)",
  "key": {"[1]": {"target": "JAK2 kinase domain (Homo sapiens (Human), UniProt O60674)", "sequence (O60674 849-1124)": "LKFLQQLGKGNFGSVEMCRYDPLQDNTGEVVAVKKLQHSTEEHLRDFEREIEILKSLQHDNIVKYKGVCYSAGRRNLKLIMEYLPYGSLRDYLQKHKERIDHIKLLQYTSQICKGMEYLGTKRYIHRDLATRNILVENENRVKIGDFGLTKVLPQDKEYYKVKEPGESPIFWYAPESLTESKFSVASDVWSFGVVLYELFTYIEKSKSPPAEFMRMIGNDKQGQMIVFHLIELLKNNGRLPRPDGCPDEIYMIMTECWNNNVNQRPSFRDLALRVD", "assay": "Biochemical assay for inhibitors of JAK kinase activity, JAK2", "details": "JAK2 kinase domain 1 nM, 60 μM ATP", "procedure": "(§1) Specific JAK2, JAK1 or JAK3 peptide substrates are trans-phosphorylated by JAK kinases in the presence of ATP traced with 33P-γ-ATP. At the end of the phosphorylation reaction, the unreacted ATP, cold and radioactive, is captured by an excess of dowex ion exchange resin that eventually settles by gravity to the bottom of the reaction plate. The supernatant is subsequently withdrawn and transferred into a counting plate that is then evaluated by β-counting.\n(§2) 500 g of wet resin (SIGMA, custom prepared resin DOWEX 1×8 200-400 mesh, 2.5 Kg) are weighed out and diluted 2 to 1 in 150 mM sodium formate, pH 3.00. The resin is allowed to settle down overnight and then the supernatant is discarded. After three washes as above over a couple of days, the resin is allowed to settle and two volumes (with respect to the resin volume) of 150 mM sodium formate buffer are added.\n(§3) Kinase buffer was composed of 50 mM HEPES pH 7.5 containing 10 mM MgCl2, 2.5 mM DTT, 10 μM Na3VO4 and 0.2 mg/mL BSA.\n(§4) The peptidic substrate was purchased from American Peptide Company (Sunnyvale, Calif.).\n(§5) Data are analyzed by Symix Assay Explorer software (Symix Technologies Inc.) that provides sigmoidal fitting algorithm of the 8 points dilutions curves for IC50 determination."}, "[2]": {"target": "TYK2 kinase domain (Homo sapiens (Human), UniProt P29597)", "sequence (P29597 833-1187)": "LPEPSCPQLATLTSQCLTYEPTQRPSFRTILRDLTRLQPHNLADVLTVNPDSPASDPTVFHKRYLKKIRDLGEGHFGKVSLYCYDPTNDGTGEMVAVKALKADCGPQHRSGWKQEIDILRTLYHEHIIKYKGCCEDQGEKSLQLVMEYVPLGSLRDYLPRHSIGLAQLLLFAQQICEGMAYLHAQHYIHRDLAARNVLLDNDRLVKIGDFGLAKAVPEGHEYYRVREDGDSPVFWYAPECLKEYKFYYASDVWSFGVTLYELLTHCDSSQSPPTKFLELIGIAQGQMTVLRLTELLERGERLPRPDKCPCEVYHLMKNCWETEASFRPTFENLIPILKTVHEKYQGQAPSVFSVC", "assay": "Biochemical assay for inhibitors of JAK kinase activity, TYK2", "details": "TYK2 kinase domain 3 nM, 31 μM ATP", "procedure": "as §1, §2, §3, §4, §5"}, "[3]": {"system": "JAK2 dependent human megakaryoblastic leukemia cell line SET-2", "assay": "Cell proliferation assay, SET-2", "type": "cell-based", "details": "SET-2 cells, 72 hours, CellTiter-Glo"}, "[4]": {"system": "JAK2 independent human chronic myelogenous leukaemia cell line K562", "assay": "Cell proliferation assay, K562", "type": "cell-based", "details": "K562 cells, 72 hours, CellTiter-Glo, read-out: IC50 K-562"}, "[5]": {"target": "JAK1 kinase domain (Homo sapiens (Human), UniProt P23458)", "sequence (P23458 861-1152)": "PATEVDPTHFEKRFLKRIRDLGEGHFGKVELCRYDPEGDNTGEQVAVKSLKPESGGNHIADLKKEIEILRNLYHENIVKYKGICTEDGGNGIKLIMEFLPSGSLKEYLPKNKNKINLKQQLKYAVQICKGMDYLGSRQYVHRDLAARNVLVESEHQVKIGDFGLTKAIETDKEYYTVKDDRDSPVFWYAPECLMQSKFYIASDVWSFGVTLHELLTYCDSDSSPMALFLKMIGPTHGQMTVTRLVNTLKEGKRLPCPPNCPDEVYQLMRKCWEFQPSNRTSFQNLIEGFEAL", "assay": "Biochemical assay for inhibitors of JAK kinase activity, JAK1", "details": "preactivated JAK1 kinase domain 2.5 nM, 100 μM ATP", "procedure": "as §1, §2, §3\nAssays were performed with the JAK1 kinase domain (residues 861-1152 of the 1154 amino acid long full-length sequence, accession number P23458 of UniProtKB/Swiss-Prot database).\nThe JAK1 kinase domain was preactivated with ATP for 1 h at 28° C. in order to obtain a linear kinetic.\nas §4, §5"}, "[6]": {"system": "IL-2 dependent human T lymphoma cell line DERL-7", "assay": "Cell proliferation assay, DERL-7", "type": "cell-based", "details": "DERL7; DERL-7 cells, 20 ng/ml human IL-2, 72 hours, CellTiter-Glo", "procedure": "the JAK2 dependent human megakaryoblastic leukemia cell line SET-2 (DSMZ, Braunschweig GERMANY), and JAK2 independent human chronic myelogenous leukaemia cell line K562 (ECACC, Wiltshire, UK) were cultured in RPMI-1640 medium-Glutamax (Gibco BRL, Gaithesburg, Md., USA), supplemented with 10% fetal bovine serum (FBS) at 37° C. and 5% CO2. The IL-2 dependent human T lymphoma cell line DERL-7 (DSMZ, Braunschweig GERMANY) was used to test the activity of compounds in cells on JAK1/JAK3 kinases activated by IL-2. The DERL-7 cell lines were cultured in RPMI-1640 medium-Glutamax (Gibco BRL, Gaithesburg, Md., USA), supplemented with 20% FBS and 20 ng/ml of human IL-2 (Sigma-Aldrich, St. Louis, Mo., USA).\nApproximately 5×10^3 cells were plated into 384 microtiter plate wells in 50 μL of growth media with different concentrations of inhibitors. The cells were incubated at 37° C. and 5% CO2 for 72 hours, than the plates were processed using CellTiter-Glo assay (Promega, Madison, Wis., USA) following the manufacturer's instruction. Briefly 25 μL/well reagent solution are added to each wells and after 5 minutes shacking micro-plates are read by Envision luminometer (PerkinElmer, Waltham, Mass., USA).\nas §5"}},
  "data": [
    {"smiles": "NC(=O)c1cc(-c2ncnc3[nH]ccc23)cn1-c1cc(C(F)(F)F)ccc1Cl", "note": "[compd 244, 1-[2-Chloro-5-(trifluoromethyl)phenyl]-4-(7H-pyrrolo[2,3-d]pyrimidin-4-yl)-1H-pyrrole-2-carboxamide]", "values": [
      {"measurement": "IC50", "setting": "[1]", "value": 1, "unit": "nM"},
      {"measurement": "IC50", "setting": "[2]", "value": 3, "unit": "nM"},
      {"measurement": "IC50", "setting": "[3]", "value": 60, "unit": "nM"},
      {"measurement": "IC50", "setting": "[4]", "value": 7230, "unit": "nM"},
      {"measurement": "IC50", "setting": "[5]", "value": 4, "unit": "nM"},
      {"measurement": "IC50", "setting": "[6]", "value": 146, "unit": "nM"}
    ]},
    {"smiles": "Cc1ccc(Cl)cc1-c1cn(-c2ncnc3[nH]ccc23)cc1C(N)=O", "note": "[compd 270, 4-(5-Chloro-2-methylphenyl)-1-(7H-pyrrolo[2,3-d]pyrimidin-4-yl)-1H-pyrrole-3-carboxamide]", "values": [
      {"measurement": "IC50", "setting": "[1]", "value": 17, "unit": "nM"},
      {"measurement": "IC50", "setting": "[2]", "value": 43, "unit": "nM"},
      {"measurement": "IC50", "setting": "[3]", "value": 550, "unit": "nM"},
      {"measurement": "IC50", "setting": "[4]", "value": 1890, "unit": "nM"},
      {"measurement": "IC50", "setting": "[5]", "value": 85, "unit": "nM"},
      {"measurement": "IC50", "setting": "[6]", "value": 1790, "unit": "nM"}
    ]},
    {"smiles": "CCc1ccc(Cl)cc1-c1[nH]c(-c2cc(NC)ncn2)cc1C(=O)NC", "note": "[compd 302, 2-(5-Chloro-2-ethylphenyl)-N-methyl-5-[6-(methylamino)pyrimidin-4-yl]-1H-pyrrole-3-carboxamide]", "values": [
      {"measurement": "IC50", "setting": "[1]", "value": 1, "unit": "nM"},
      {"measurement": "IC50", "setting": "[2]", "value": 10, "unit": "nM"},
      {"measurement": "IC50", "setting": "[3]", "value": 130, "unit": "nM"},
      {"measurement": "IC50", "setting": "[4]", "value": 6610, "unit": "nM"},
      {"measurement": "IC50", "setting": "[5]", "value": 1, "unit": "nM"},
      {"measurement": "IC50", "setting": "[6]", "value": 469, "unit": "nM"}
    ]},
    {"smiles": "CCc1ccc(C(F)(F)F)cc1-c1[nH]c(-c2cc(N)ncn2)cc1C(=O)NC", "note": "[compd 321, 5-(6-Aminopyrimidin-4-yl)-2-[2-ethyl-5-(trifluoromethyl)phenyl]-N-methyl-1H-pyrrole-3-carboxamide]", "values": [
      {"measurement": "IC50", "setting": "[1]", "value": 3, "unit": "nM"},
      {"measurement": "IC50", "setting": "[2]", "value": 38, "unit": "nM"},
      {"measurement": "IC50", "setting": "[3]", "value": 250, "unit": "nM"},
      {"measurement": "IC50", "setting": "[4]", "value": "> 10000", "unit": "nM"},
      {"measurement": "IC50", "setting": "[5]", "value": 9, "unit": "nM"},
      {"measurement": "IC50", "setting": "[6]", "value": 548, "unit": "nM"}
    ]},
    {"smiles": "CCc1ccc(C(F)(F)F)cc1-c1[nH]c(-c2ncnc3[nH]ccc23)cc1C(=O)NC", "note": "[compd 323, 2-[2-Ethyl-5-(trifluoromethyl)phenyl]-N-methyl-5-(7H-pyrrolo[2,3-d]pyrimidin-4-yl)-1H-pyrrole-3-carboxamide]", "values": [
      {"measurement": "IC50", "setting": "[1]", "value": 3, "unit": "nM"},
      {"measurement": "IC50", "setting": "[2]", "value": 22, "unit": "nM"},
      {"measurement": "IC50", "setting": "[3]", "value": 220, "unit": "nM"},
      {"measurement": "IC50", "setting": "[4]", "value": "> 10000", "unit": "nM"},
      {"measurement": "IC50", "setting": "[5]", "value": 6, "unit": "nM"},
      {"measurement": "IC50", "setting": "[6]", "value": 510, "unit": "nM"}
    ]}
  ]
}
